Results reported in patent publication US9814672B2, “Echogenic vehicle for clinical delivery of plasminogen activator and other fibrin-binding therapeutics to thrombi” (priority 2007, dated 2017).

Key:
[1] = tPA enzyme activity after PPACK inactivation, paranitroanilide-substrate method; assay type: biochemical; settings: S.E., n=3
Experimental: Reconstituted tPA was incubated with a fivefold molar excess of PPACK in 0.2 M L-arginine in 0.05M phosphate buffer, pH 7.2, with 0.01% Tween 20 for 1 hour at room temperature, followed by dialysis against reaction buffer to remove unreacted PPACK. A control preparation was carried through the procedure without PPACK and all procedures involving PPACK were protected from light. Enzyme activity in PPACK-treated and control tPA preparations was measured with a […] paranitroanilide-substrate method (Ranby and Wallen, 1981).

fibrin = biological target: T1, fibrin (Homo sapiens, UniProt P02671+P02675+P02679); settings: SOFIA-tPA assay; read-out: KD of tPA-fibrin binding reported by Angles-Cano (1986); cited from earlier work
T1 construct: were incubated on replicate fibrin pads, prepared in microplate wells; purchased Calbiochem (EMD Biosciences, Inc., La Jolla, Calif.)
T1 sequence (P02671 36-629 limits assumed): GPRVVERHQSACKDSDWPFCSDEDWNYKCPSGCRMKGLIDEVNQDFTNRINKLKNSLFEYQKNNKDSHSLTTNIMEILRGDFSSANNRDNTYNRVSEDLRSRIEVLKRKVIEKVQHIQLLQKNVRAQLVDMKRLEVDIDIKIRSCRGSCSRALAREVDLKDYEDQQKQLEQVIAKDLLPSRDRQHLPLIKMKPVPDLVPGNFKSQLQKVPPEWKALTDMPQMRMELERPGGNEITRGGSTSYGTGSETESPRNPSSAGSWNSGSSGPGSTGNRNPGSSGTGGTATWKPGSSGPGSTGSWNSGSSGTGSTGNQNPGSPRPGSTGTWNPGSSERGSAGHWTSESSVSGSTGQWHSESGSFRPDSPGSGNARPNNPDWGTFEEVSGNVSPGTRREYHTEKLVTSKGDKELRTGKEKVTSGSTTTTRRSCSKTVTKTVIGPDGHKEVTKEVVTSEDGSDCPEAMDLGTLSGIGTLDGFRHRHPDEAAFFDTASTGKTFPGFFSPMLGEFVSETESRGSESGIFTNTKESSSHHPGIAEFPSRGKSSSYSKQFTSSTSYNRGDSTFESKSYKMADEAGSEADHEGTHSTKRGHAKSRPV
T1 sequence (P02675 45-491 limits assumed): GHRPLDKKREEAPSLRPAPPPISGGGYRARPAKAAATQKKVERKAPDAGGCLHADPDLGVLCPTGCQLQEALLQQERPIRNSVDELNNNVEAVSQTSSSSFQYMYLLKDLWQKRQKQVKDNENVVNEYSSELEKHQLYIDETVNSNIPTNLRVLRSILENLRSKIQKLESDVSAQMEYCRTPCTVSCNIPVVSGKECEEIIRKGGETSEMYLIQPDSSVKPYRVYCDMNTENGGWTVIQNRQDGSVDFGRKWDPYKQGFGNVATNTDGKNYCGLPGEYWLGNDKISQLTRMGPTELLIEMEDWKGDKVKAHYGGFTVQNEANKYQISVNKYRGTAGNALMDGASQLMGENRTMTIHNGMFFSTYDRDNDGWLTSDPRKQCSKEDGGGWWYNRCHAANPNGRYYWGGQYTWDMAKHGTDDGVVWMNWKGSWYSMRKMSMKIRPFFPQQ
T1 sequence (P02679 27-437 isoform P02679-2 limits assumed): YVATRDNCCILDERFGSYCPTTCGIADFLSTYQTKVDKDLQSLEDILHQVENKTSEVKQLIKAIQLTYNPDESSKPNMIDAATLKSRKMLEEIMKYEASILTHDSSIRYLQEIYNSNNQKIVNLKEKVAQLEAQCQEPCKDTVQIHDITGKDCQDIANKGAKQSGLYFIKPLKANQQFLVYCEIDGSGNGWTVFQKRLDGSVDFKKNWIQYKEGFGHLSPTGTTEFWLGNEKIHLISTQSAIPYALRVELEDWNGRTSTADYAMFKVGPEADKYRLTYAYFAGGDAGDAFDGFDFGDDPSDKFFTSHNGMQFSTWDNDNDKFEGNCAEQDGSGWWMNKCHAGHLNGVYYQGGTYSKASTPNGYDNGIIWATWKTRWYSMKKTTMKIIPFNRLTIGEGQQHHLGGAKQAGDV

Substance	Percent Starting Activity [1] [%]	Kd (fibrin) [nM]
tPA(P): Human recombinant tPA (Activase®) irreversibly inhibited with D-phe-L-pro-L-arg-chloromethyl ketone (PPACK)	4.7 ± 2.9	
tPA: Recombinant tissue-plasminogen activator (Activase®, Genentech Inc.), used as the thrombolytic agent [reference compound]		1.4 ± 2
